# Structures can show the parent of a compound that is named as a salt.
# Molecular target: T1, NHE3 (Homo sapiens, UniProt P48764)
# T1 sequence (P48764 26-834): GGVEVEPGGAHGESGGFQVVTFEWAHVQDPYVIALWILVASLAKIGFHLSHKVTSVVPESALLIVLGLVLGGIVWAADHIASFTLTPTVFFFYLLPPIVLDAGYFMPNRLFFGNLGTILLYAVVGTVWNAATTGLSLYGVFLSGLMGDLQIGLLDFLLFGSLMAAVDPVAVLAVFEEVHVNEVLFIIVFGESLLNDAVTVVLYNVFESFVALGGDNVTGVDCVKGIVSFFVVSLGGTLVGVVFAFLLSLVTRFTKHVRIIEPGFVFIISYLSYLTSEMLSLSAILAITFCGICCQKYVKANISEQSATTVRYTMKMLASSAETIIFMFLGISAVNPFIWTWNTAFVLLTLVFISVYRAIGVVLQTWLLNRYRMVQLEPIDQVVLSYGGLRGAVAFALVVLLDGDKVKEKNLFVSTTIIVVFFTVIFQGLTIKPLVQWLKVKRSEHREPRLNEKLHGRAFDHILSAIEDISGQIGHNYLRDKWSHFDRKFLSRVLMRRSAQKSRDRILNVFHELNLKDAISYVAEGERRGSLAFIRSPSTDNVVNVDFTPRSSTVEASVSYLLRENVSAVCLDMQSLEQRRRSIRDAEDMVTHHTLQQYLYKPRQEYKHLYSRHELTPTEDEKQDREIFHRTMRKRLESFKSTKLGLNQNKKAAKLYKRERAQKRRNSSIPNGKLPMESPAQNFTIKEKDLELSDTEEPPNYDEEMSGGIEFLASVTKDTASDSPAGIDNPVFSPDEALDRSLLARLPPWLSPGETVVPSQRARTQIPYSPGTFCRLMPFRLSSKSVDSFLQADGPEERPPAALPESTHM
# Experiment: Recovery of intracellular pH (pHi) after acidification, BCECF fluorescence, NHE3
# Type: cell-based
# Conditions: inhibition of pH recovery after intracellular acidification; rate registered at three minutes for NHE3; bicarbonate-free
# Procedure: Pharmacological Data: Test Description:
# This test determines the recovery of the intracellular pH (pHi) after acidification, and this recovery occurs in the case of functional NHE even under bicarbonate-free conditions. To this end, the pHi was determined using the pH-sensitive fluorescent dye BCECF (Calbiochem, the BCECF-AM precursor was used). The cells were initially loaded with BCECF. The BCECF fluorescence was determined in a Ratio Fluorescence Spectrometer (Photon Technology International, South Brunswick, N.J., USA) at excitation wavelengths of 505 and 440 nm and an emission wavelength of 535 nm and converted to the pHi by means of calibration curves. The cells had already been incubated in NH4Cl buffer (pH 7.4) in the course of the BCECF loading (NH4Cl buffer: 115 mM NaCl, 20 mM NH4Cl, 5 mM KCl, 1 mM CaCl2, 1 mM MgSO4, 20 mM Hepes, 5 mM glucose, 1 mg/ml BSA; a pH of 7.4 was established using 1 M NaOH). The intracellular acidification was induced by adding 975 μl of an NH4Cl-free buffer (see below) to 25 μl aliquots of the cells incubated in NH4Cl buffer. The subsequent rate of the pH recovery was registered at 2 minutes for NHE1, at 5 minutes for NHE2 and at three minutes for NHE3. For the calculation of the inhibitory potency of the tested substances, the cells were initially investigated in buffers in which complete or absolutely no pH recovery took place. For complete pH recovery (100%), the cells were incubated in Na^+-containing buffer (133.8 mM NaCl, 4.7 mM KCl, 1.25 mM CaCl2, 1.25 mM MgCl2, 0.97 mM Na2HPO4, 0.23 mM NaH2PO4, 5 mM Hepes, 5 mM glucose, a pH of 7.0 was established using 1 M NaOH). For the determination of the 0% value, the cells were incubated in an Na^+-free buffer (133.8 mM choline chloride, 4.7 mM KCl, 1.25 mM CaCl2, 1.25 mM MgCl2, 0.97 mM K2HPO4, 0.23 mM KH2PO4, 5 mM Hepes, 5 mM glucose, a pH of 7.0 was established using 1 M NaOH). The substances to be tested were made up in the Na^+-containing buffer. The recovery of the intracellular pH at each tested concentration of a substance was expressed in percent of the maximum recovery. The percentages of the pH recovery were used to calculate the IC50 value of the particular substance for the individual NHE subtypes by means of the program Sigma-Plot.
row,IC50 [nM],Structure (SMILES)
1,3.6,"CN1Cc2c(Cl)cc(Cl)cc2C(c2cccc(NC(=O)[C@H](O)[C@@H](O)[C@H](O)[C@H](O)CO)c2)C1 (stereo partly drawn) [Example 2, N-[3-(6,8-dichloro-2-methyl-1,2,3,4-tetrahydroisoquinolin-4-yl)phenyl]-(2R,3S,4R,5R)-2,3,4,5,6-pentahydroxyhexanamide]"
2,29.1,"CN1Cc2c(Cl)cc(Cl)cc2C(c2ccc(NC(=O)[C@@H](N)CCCNC(=N)N)cc2)C1 (stereo partly drawn) [Example 31, N-[4-(6,8-dichloro-2-methyl-1,2,3,4-tetrahydroisoquinolin-4-yl)phenyl]-(S)-2-amino-5-guanidinopentanamide trifluoroacetate]"
3,159,"CN1Cc2c(Cl)cc(Cl)cc2C(c2cccc(C(=O)N[C@@H](CO)C(=O)O)c2)C1 (stereo partly drawn) [Example 16, (S)-2-[3-(6,8-dichloro-2-methyl-1,2,3,4-tetrahydroisoquinolin-4-yl)benzoylamino]-3-hydroxypropionic acid hydrochloride]"
4,17.6,"CN1Cc2c(Cl)cc(Cl)cc2C(c2cccc(NC(=O)N[C@@H](CC(N)=O)C(=O)O)c2)C1 (stereo partly drawn) [Example 13, {N-[3-(6,8-dichloro-2-methyl-1,2,3,4-tetrahydroisoquinolin-4-yl)phenyl]-N′-(1-carboxy-4-aminocarboxy-2S-butyl)}urea hydrochloride]"
